# Where “and” joins values, the source holds several entries; their conditions need not be identical. Equal values may be shown once. Where a name gives a salt, the structure may show the parent alone.
# Columns and labels:
# [1] = set-up: method as in doi:10.4103/pm.pm_307_19; details: mice, different doses; conforms to a two-compartment model; cited from earlier work
# [2] = Stability of Gastrodin solution (room temperature, repeated freeze-thaw); type: physicochemical; details: Gastrodin solution stored at −20 °C
# Method: To verify whether the sample processing and detection methods were stable, we examined both their room temperature stability and their repeated freeze-thaw stability.
# Three solutions containing 50 mg mL^−1, 100 mg mL^1, and 500 mg mL^−1 of Gastrodin were first prepared and stored at room temperature. This was then measured every 6 h. Finally, the RSD was calculated, which was examined for its room temperature stability.
# Three solutions of the same concentration were prepared as described above and tested immediately after preparation. They were then stored at −20 °C for 21 h, removed to allow thawing, and left at room temperature for 3 h before assay. The test was continued at a low temperature and the RSD was calculated after repeating the assay three times to investigate its repeated freeze-thaw stability.
# OCTs [3] = assay: Hepatic uptake of Gastrodin in rats after the OCTs inhibitor adrenalone (ADR group); type: in vivo, Sprague-Dawley (SD) rats
# Excerpt: (§1) The transporters involved in liver transport mainly include organic anion transport peptides (Oatps) and organic cation transporters (Octs), and these two transporters are most expressed in the liver. Therefore, this study chose Oatps and Octs as the research objects. Transport proteins affect drug efficacy and toxicity, the liver is the main organ for the metabolism of substances. […] Using the method of rats in vivo, and choose organic anion transfer peptide Oatps and organic cation transporter Octs inhibitors for the probe, after the transporters are suppressed, intravenous drip Gastrodine, drug concentrations reach homeostasis in blood drug concentration, drug absorption rate and elimination rate balance, illustrate the liver intake transporters saturated. Using HPLC determination of drug concentration in liver and blood at this time the ratio of the Kp (Kp = Css/Css drug concentration of liver blood drug concentration), and under normal circumstances (i.e., without giving inhibitors) compared to Kp, if Kp decrescent, namely that the drug transporters of the substrate. This study explore the intrinsic relationship between the uptake of Gastrodin in rat liver and the organic anion transport peptide Oatps and organic cation transporter Octs, thus preliminarily elucidating the molecular mechanism of Gastrodin uptake in the liver, provide theoretical basis for the safety of clinical combination therapy [[10], [11], [12]].
# (§2) The use of experimental animals was approved by the Ethics Committee of Southwest University (Chongqing, China). We strictly followed the National and Institutional guidelines for animal protection and welfare. In total, 18 adult male Sprague-Dawley (SD) rats (SPF, weight: 150 ± 20g) were obtained from the Center of Experimental Animals, Sichuan Province People's Hospital. The rats were kept at room temperature (25 °C) with free access to food and water. They were allowed to adapt to the new environment for one week before starting induction and treatment. Following acclimatization, the experimental rats were randomly divided into three groups (n = 6) as follows: Control group (treated with Gastrodin), ADR group (treated with Gastrodin and adrenalone), and RIF group (treated with Gastrodin and rifampicin).
# (§3) To clarify the role of hepatic transport proteins, the concentration of Gastrodin chosen for this experiment was 569 mg kg^−1 (converted from the concentration in mice: rat dose (mg·kg^−1) = mouse dose (mg·kg^−1)/1.44), based on the results of previous studies. An equal dose of Gastrodin was injected before intravenous drip as a loading dose, to ensure that the steady-state blood concentration (Css) of Gastrodin was reached and the transporter protein was saturated by 300 min of intravenous drip. Then, the volume of Gastrodin was computed according to the following formula: drop volume = drop speed (4 μL h^−1 g^−1) × time × weight.
# (§4) Gastrodin solution: 1138.9 mg of Gastrodin extract was added to a 10 mL volumetric flask. Physiological saline was added and diluted to prepare a solution with a concentration of 113.89 mg mL^−1. Then, the solution was frozen and stored (administered at 1 mL·200g ^−1 i.v.).
# Adrenalone (ADR) solution: 64 mg of […] was weighed precisely and prepared at 8 mg mL^−1 concentration (administered at 0.5 mL·200 g^−1 i.v.) using 30 % PEG400 as solvent.
# (§5) The rats were fasted for 12 h before the experiment. They had free access to water. The rats were regularly weighed before the initiation of the experiment. The control group first received Gastrodin solution (569 mg kg^−1) through the caudal vein as a loading dose, followed by the caudal injection of a Gastrodin solution (569 mg kg^−1) at a rate of 4 μg h^−1·g^−1. Each rat of the RIF group was given rifampicin 2 mL·200 g^−1 via oral gavage and 1h later 569 mg kg^−1 of Gastrodin was injected. […]
# [4] = Gastrodin plasma and liver concentrations and Kp in rats, control group (no inhibitor); type: in vivo, Sprague-Dawley (SD) rats
# Excerpt: as §1, §2, §3, §4
# as §5, with “injected. Likewise, the ADR group was injected with adrenalone (0.5 mL·200 g^−1) via the caudal vein, and 0.5 h later 569 mg kg^−1 of Gastrodin was injected.” for “injected.”
# OATPs [5] = assay: Hepatic uptake of Gastrodin in rats after the OATPs inhibitor rifampicin (RIF group); type: in vivo, Sprague-Dawley (SD) rats
# Excerpt: as §1, §2, §3, §4
# Rifampicin (RIF) solution: 90 mg of rifampicin was precisely weighed. Then, 30 mL saline was added to prepare 3 mg mL^−1 solution (administered at 2 mL·200 g ^−1 i.g.).
# as §5
# OATPs [6] = assay: Check of the OATPs inhibitor in rats with BSP as substrate; type: in vivo; details: dose of 30 mg kg^−1, ELISA
# Excerpt: (§6) Selecting suitable substrates and inhibitors of OATPs and OCTs is crucial for the experiment. Therefore, our team also used OATPs and OCTs inhibitors. Based on the relevant literature, metformin hydrochloride was selected as the substrate of OCTs, and sodium sulfobromophthalide (BSP) was selected as the substrate of OATPs. […] Most of the previous studies used RIF as an inhibitor of OATPs and epinephrine as an inhibitor of OCTs. We detected drug concentration in blood samples and in the liver of rats. The concentration of metformin hydrochloride was detected by HPLC, and BSP was measured by enzyme-linked immunosorbent assay (ELISA).
# OCTs [7] = assay: Check of the OCTs inhibitor in rats with metformin hydrochloride as substrate; type: in vivo
# Excerpt: as §6
smiles,measurement,setting,value
"OCc1ccc(O[C@@H]2O[C@H](CO)[C@@H](O)[C@H](O)[C@H]2O)cc1 [GAS, hydroxyl methyl benzene - beta - D - pyran glucoside]",Pharmacokinetic profile,[1],non-linear
same,Storage time with good stability,[2],at least 3 days
same,KP (liver / blood concentration),"OCTs [3]; ADR group, single rats, 300 min",0.0645 and 0.0324 and 0.0463 and 0.0716 and 0.0447 and 0.1550
same,"Plasma concentration of GAS, 90min","OCTs [3]; ADR group, single rats, adrenalone 0.5 mL·200 g^−1 i.v. 0.5 h before Gastrodin 569 mg kg^−1, 90 min",617.7201 µg/mL and 10576.3600 µg/mL and 1294.1160 µg/mL and 1093.5800 µg/mL and 3877.7610 µg/mL
same,"Plasma concentration of GAS, 180min","OCTs [3]; ADR group, single rats, adrenalone i.v. 0.5 h before Gastrodin 569 mg kg^−1, 180 min",650.1415 µg/mL and 3246.9130 µg/mL and 497.0489 µg/mL and 1215.3470 µg/mL and 1883.7120 µg/mL
same,"Plasma concentration of GAS, 300min","OCTs [3]; ADR group, single rats, adrenalone i.v. 0.5 h before Gastrodin 569 mg kg^−1, 300 min",2255.8310 µg/mL and 2303.3090 µg/mL and 659.0208 µg/mL and 643.2905 µg/mL and 1871.4590 µg/mL
same,Liver concentration of GAS,"OCTs [3]; ADR group, single rats, liver taken at 300 min",25.4541 µg/mL and 73.1891 µg/mL and 106.5988 µg/mL and 47.2096 µg/mL and 28.7519 µg/mL and 290.1262 µg/mL
same,Substrate of OCTs,"OCTs [3]; concluded from lower KP after OCTs inhibitor, rat in vivo",likely substrate
same,Kp at 300 min,"OCTs [3]; male, Sprague-Dawley, rat, liver / blood, intravenous, ADR group, n = 6, *p < 0.05 vs Control",0.0691 ± 0.0444
same,concentration at 90 min,"OCTs [3]; male, Sprague-Dawley, rat, plasma, iv, ADR group, single rats, adrenalone 0.5 mL·200 g^−1 i.v. 0.5 h before Gastrodin 569 mg kg^−1, 90 min, read-out: Plasma concentration of GAS, 90min",762 µg/mL
same,concentration at 180 min,"OCTs [3]; male, Sprague-Dawley, rat, plasma, iv, ADR group, single rats, adrenalone i.v. 0.5 h before Gastrodin 569 mg kg^−1, 180 min, read-out: Plasma concentration of GAS, 180min",445 µg/mL
same,concentration at 300 min,"OCTs [3]; male, Sprague-Dawley, rat, plasma, iv, ADR group, single rats, adrenalone i.v. 0.5 h before Gastrodin 569 mg kg^−1, 300 min, read-out: Plasma concentration of GAS, 300min",394 µg/mL
same,KP (liver / blood concentration),"[4]; Control group, single rats, 300 min",0.2918 and 0.2172 and 0.0618 and 0.3204 and 0.0919
same,"Plasma concentration of GAS, 90min","[4]; Control group, single rats, Gastrodin 569 mg kg^−1 i.v. loading dose plus i.v. drip, 90 min",418.6414 µg/mL and 490.4070 µg/mL and 858.0713 µg/mL and 839.0300 µg/mL and 374.1060 µg/mL and 714.8180 µg/mL
same,"Plasma concentration of GAS, 180min","[4]; Control group, single rats, Gastrodin 569 mg kg^−1 i.v. loading dose plus i.v. drip, 180 min",296.4502 µg/mL and 450.2900 µg/mL and 241.1238 µg/mL and 473.1890 µg/mL and 388.0036 µg/mL and 943.8820 µg/mL
same,"Plasma concentration of GAS, 300min","[4]; Control group, single rats, Gastrodin 569 mg kg^−1 i.v. loading dose plus i.v. drip, 300 min",160.2300 µg/mL and 435.3740 µg/mL and 690.0752 µg/mL and 482.2634 µg/mL and 537.2563 µg/mL and 961.3480 µg/mL
same,Liver concentration of GAS,"[4]; Control group, single rats, liver taken at 300 min",46.7539 µg/mL and 94.5472 µg/mL and 42.6760 µg/mL and 154.5100 µg/mL and 49.3480 µg/mL and 165.2782 µg/mL
same,Kp at 300 min,"[4]; male, Sprague-Dawley, rat, liver / blood, intravenous, 569 mg kg^−1, Control group, n = 6",0.14 ± 0.127
same,KP (liver / blood concentration),"OATPs [5]; RIF group, single rats, 300 min",0.0695 and 0.1237 and 0.0037 and 0.0044 and 0.0041 and 0.0042
same,Liver concentration of GAS,"OATPs [5]; RIF group, single rats, liver taken at 300 min",143.4890 µg/mL and 54.8940 µg/mL and 33.3675 µg/mL and 48.7120 µg/mL and 41.0071 µg/mL and 101.5434 µg/mL
same,"Plasma concentration of GAS, 90min","OATPs [5]; RIF group, single rats, rifampicin 2 mL·200 g^−1 i.g. 1 h before Gastrodin 569 mg kg^−1, 90 min",30828.4900 µg/mL and 1684.7620 µg/mL and 8505.0480 µg/mL and 15559.1500 µg/mL and 79163.4800 µg/mL and 26044.6400 µg/mL
same,"Plasma concentration of GAS, 180min","OATPs [5]; RIF group, single rats, rifampicin i.g. 1 h before Gastrodin 569 mg kg^−1, 180 min",13840.5600 µg/mL and 8435.3490 µg/mL and 24589.4100 µg/mL and 8312.9910 µg/mL and 20131.4400 µg/mL and 4501.0340 µg/mL
same,"Plasma concentration of GAS, 300min","OATPs [5]; RIF group, single rats, rifampicin i.g. 1 h before Gastrodin 569 mg kg^−1, 300 min",2063.3640 µg/mL and 8969.1250 µg/mL and 10985.5800 µg/mL and 9971.0380 µg/mL and 23912.4400 µg/mL
same,Substrate of OATPs,"OATPs [5]; concluded from lower KP after OATPs inhibitor, rat in vivo",likely substrate
same,Kp at 300 min,"OATPs [5]; male, Sprague-Dawley, rat, liver / blood, intravenous, RIF group, n = 6, *p < 0.05 vs Control",0.035 ± 0.0508
same,concentration at 300 min,"OATPs [5]; male, Sprague-Dawley, rat, plasma, intravenous, RIF group, single rats, rifampicin i.g. 1 h before Gastrodin 569 mg kg^−1, 300 min, read-out: Plasma concentration of GAS, 300min",444 µg/mL
"CO[C@H]1/C=C/O[C@@]2(C)Oc3c(C)c(O)c4c(O)c(c(/C=N/N5CCN(C)CC5)c(O)c4c3C2=O)NC(=O)/C(C)=C\C=C\[C@H](C)[C@H](O)[C@@H](C)[C@@H](O)[C@@H](C)[C@H](OC(C)=O)[C@@H]1C [RIF, rifampicin]",Hepatic transport of OATPs in rats,OATPs [6],inhibited
CN(C)C(=N)N=C(N)N [metformin hydrochloride],Hepatic concentrations of the drug after OCTs inhibitor,"OCTs [7]; rats, OCTs inhibitor given",significant reduction
"CNCC(=O)c1ccc(O)c(O)c1 [ADR, adrenalone]",Hepatic transportation of OCTs in rats,"OCTs [7]; dose of 20 mg kg^−1, substrate metformin hydrochloride, HPLC",inhibited

# — article PMC11369432, “Study on the uptake of Gastrodin in the liver” (Heliyon, 2024)
